Measurements from PubChem BioAssay AID248 (DTP/NCI, 2004).
Several values for one entry are separate records, joined by “and”; a condition that tells them apart may be missing. Equal entries are not always repeated. Inconclusive results and toxic doses are left out. No stated cut-off is given here; in the data, active means T/C of 150% or more; inactive means T/C below 125%.

Test system: L1210 leukemia ip in BDF1 mice, survival T/C
Assay: NCI In Vivo Anticancer Drug Screen. Data for tumor model L1210 Leukemia (intraperitoneal) in B6D2F1 (BDF1) mice
Conditions: endpoint: mean survival time, higher = longer survival
In short: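 Antitumor effect is assessed in tumor-bearing animals. Survival in the compound arm is compared with a vehicle-dosed control arm and expressed as their quotient.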

[1] = dose: 100.0 mg/kg/injection, schedule: Q01DX009 (ip), vehicle: saline with Tween-80
[2] = dose: 100.0 mg/kg/injection, schedule: Q01DX009 (ip), vehicle: Klucel (hydroxypropylcellulose) (HPC)
[3] = dose: 200.0 mg/kg/injection, schedule: Q01DX009 (ip), vehicle: Klucel (hydroxypropylcellulose) (HPC)
[4] = dose: 100.0 mg/kg/injection, schedule: Q04DX003 (ip), vehicle: saline with Tween-80
[5] = dose: 200.0 mg/kg/injection, schedule: Q04DX003 (ip), vehicle: saline with Tween-80
[6] = dose: 400.0 mg/kg/injection, schedule: Q04DX003 (ip), vehicle: saline with Tween-80
[7] = dose: 400.0 mg/kg/injection, schedule: Q01DX009 (ip), vehicle: Klucel (hydroxypropylcellulose) (HPC)
[8] = dose: 100.0 mg/kg/injection, schedule: Q01DX001 (ip), vehicle: carboxymethylcellulose (CMC)
[9] = dose: 200.0 mg/kg/injection, schedule: Q01DX001 (ip), vehicle: carboxymethylcellulose (CMC)
[10] = dose: 400.0 mg/kg/injection, schedule: Q01DX001 (ip), vehicle: carboxymethylcellulose (CMC)
[11] = dose: 100.0 mg/kg/injection, schedule: Q01DX001 (ip), vehicle: saline
[12] = dose: 200.0 mg/kg/injection, schedule: Q01DX001 (ip), vehicle: saline
[13] = dose: 400.0 mg/kg/injection, schedule: Q01DX001 (ip), vehicle: saline

Measured: T/C

FC(F)(F)c1ccc(C2=Nc3cccc4cccc(c34)N2)cc1
inactive: dose: 15.0 mg/kg/injection, schedule: Q01DX Z (ip), vehicle: saline 105 % of control | dose: 30.0 mg/kg/injection, schedule: Q01DX Z (ip), vehicle: saline 112 % of control | dose: 60.0 mg/kg/injection, schedule: Q01DX Z (ip), vehicle: saline 110 % of control | dose: 120.0 mg/kg/injection, schedule: Q01DX Z (ip), vehicle: saline 98 % of control | dose: 120.0 mg/kg/injection, schedule: Q01DX Z (oral), vehicle: saline 105 % of control | dose: 240.0 mg/kg/injection, schedule: Q01DX Z (ip), vehicle: saline 97 % of control | dose: 240.0 mg/kg/injection, schedule: Q01DX Z (oral), vehicle: saline 118 % of control | dose: 480.0 mg/kg/injection, schedule: Q01DX Z (ip), vehicle: saline 86 % of control | dose: 480.0 mg/kg/injection, schedule: Q01DX Z (oral), vehicle: saline 106 % of control | dose: 960.0 mg/kg/injection, schedule: Q01DX Z (oral), vehicle: saline 91 % of control

O=C(CCl)NC1=C(Cl)C(=O)c2ccccc2C1=O
inactive: dose: 75.0 mg/kg/injection, schedule: Q01DX001 (ip), vehicle: saline 93 % of control

O=C(Cc1ccccc1)NCc1ccccc1Cl
inactive: dose: 25.0 mg/kg/injection, schedule: Q01DX009 (ip), vehicle: saline with Tween-80 103 % of control | dose: 50.0 mg/kg/injection, schedule: Q01DX009 (ip), vehicle: saline with Tween-80 94 % of control | [1] 96 % of control and 87 % of control | dose: 100.0 mg/kg/injection, schedule: Q04DX002 (ip), vehicle: saline with Tween-80 96 % of control | dose: 150.0 mg/kg/injection, schedule: Q01DX009 (ip), vehicle: saline with Tween-80 89 % of control | dose: 200.0 mg/kg/injection, schedule: Q04DX002 (ip), vehicle: saline with Tween-80 107 % of control | dose: 225.0 mg/kg/injection, schedule: Q01DX009 (ip), vehicle: saline with Tween-80 94 % of control | dose: 335.0 mg/kg/injection, schedule: Q01DX009 (ip), vehicle: saline with Tween-80 91 % of control | dose: 400.0 mg/kg/injection, schedule: Q04DX002 (ip), vehicle: saline with Tween-80 111 % of control

O=C1CCC(=O)N1CC(O)COc1ccccc1 (stereo not drawn)
inactive: [1] 101 % of control | dose: 100.0 mg/kg/injection, schedule: Q04DX003 (ip), vehicle: Klucel (hydroxypropylcellulose) (HPC) 93 % of control | dose: 200.0 mg/kg/injection, schedule: Q01DX009 (ip), vehicle: saline with Tween-80 101 % of control | dose: 200.0 mg/kg/injection, schedule: Q04DX003 (ip), vehicle: Klucel (hydroxypropylcellulose) (HPC) 97 % of control | dose: 400.0 mg/kg/injection, schedule: Q01DX009 (ip), vehicle: saline with Tween-80 110 % of control | dose: 400.0 mg/kg/injection, schedule: Q04DX003 (ip), vehicle: Klucel (hydroxypropylcellulose) (HPC) 106 % of control

NCc1c(Cl)cccc1[N+](=O)[O-]
inactive: dose: 50.0 mg/kg/injection, schedule: Q01DX009 (ip), vehicle: Klucel (hydroxypropylcellulose) (HPC) 96 % of control and 108 % of control | [2] 96 % of control and 99 % of control and 101 % of control | dose: 100.0 mg/kg/injection, schedule: Q04DX002 (ip), vehicle: Klucel (hydroxypropylcellulose) (HPC) 105 % of control | dose: 100.0 mg/kg/injection, schedule: Q04DX002 (ip), vehicle: saline 102 % of control | [3] 94 % of control and 104 % of control and 110 % of control | dose: 200.0 mg/kg/injection, schedule: Q04DX002 (ip), vehicle: Klucel (hydroxypropylcellulose) (HPC) 100 % of control | dose: 200.0 mg/kg/injection, schedule: Q04DX002 (ip), vehicle: saline 94 % of control

Nc1nc(-c2ccccc2)nc2nonc12
inactive: [4] 105 % of control | [5] 99 % of control | [6] 97 % of control

Cn1cnc2nn[nH]c(=O)c21
inactive: [2] 94 % of control | dose: 100.0 mg/kg/injection, schedule: Q04DX003 (ip), vehicle: saline 92 % of control | [3] 96 % of control | dose: 200.0 mg/kg/injection, schedule: Q04DX003 (ip), vehicle: saline 92 % of control | [7] 90 % of control | dose: 400.0 mg/kg/injection, schedule: Q04DX003 (ip), vehicle: saline 95 % of control

Nc1cccc2cn[nH]c12
inactive: dose: 100.0 mg/kg/injection, schedule: Q01DX009 (ip), vehicle: other 104 % of control | dose: 200.0 mg/kg/injection, schedule: Q01DX009 (ip), vehicle: other 112 % of control

NN1C(=O)Cc2ccccc2C1=O
inactive: [8] 102 % of control | [4] 101 % of control | [9] 93 % of control | [5] 101 % of control | [10] 96 % of control | [6] 116 % of control

O=c1c2ccccc2[nH]c(=S)n1-c1cccc(C(F)(F)F)c1
inactive: [2] 100 % of control | [3] 97 % of control | [7] 96 % of control

CC1(C)C2(C)CC12C (stereo not drawn)
inactive: dose: 2.5 mg/kg/injection, schedule: Q01DX009 (ip), vehicle: saline 92 % of control | dose: 5.0 mg/kg/injection, schedule: Q01DX009 (ip), vehicle: saline 91 % of control | dose: 10.0 mg/kg/injection, schedule: Q01DX009 (ip), vehicle: saline 87 % of control

Nc1nc(N)c(N=Nc2c(Br)cc(S(N)(=O)=O)cc2Br)c(=O)[nH]1
inactive: [11] 100 % of control | [12] 105 % of control | [13] 102 % of control

NC(=S)Nc1ccc(C23CCC(CC2)CC3)cc1
inactive: dose: 50.0 mg/kg/injection, schedule: Q01DX009 (ip), vehicle: saline 105 % of control | dose: 100.0 mg/kg/injection, schedule: Q01DX009 (ip), vehicle: saline 105 % of control | dose: 200.0 mg/kg/injection, schedule: Q01DX009 (ip), vehicle: saline 102 % of control

CCN(C(=O)Nc1cccc(Cl)c1)c1ccccc1C
inactive: [4] 93 % of control | [5] 88 % of control

C=CCC(OC(=O)Nc1ccc(Cl)cc1)C1OC(c2ccccc2)OC2COC(c3ccccc3)OC21 (stereo not drawn)
inactive: dose: 100.0 mg/kg/injection, schedule: Q01DX001 (ip), vehicle: gum acacia 91 % of control | dose: 200.0 mg/kg/injection, schedule: Q01DX001 (ip), vehicle: gum acacia 91 % of control | dose: 400.0 mg/kg/injection, schedule: Q01DX001 (ip), vehicle: gum acacia 93 % of control

COc1cc(/C=N\NC(=O)c2cccc(Cl)c2)ccc1N(CCCl)CCCl
inactive: dose: 50.0 mg/kg/injection, schedule: Q01DX001 (ip), vehicle: carboxymethylcellulose (CMC) 100 % of control | [8] 103 % of control | [9] 105 % of control | [10] 103 % of control

CC(=O)OC1CCC(NC(N)=O)CC1 (stereo not drawn)
inactive: dose: 176.0 mg/kg/injection, schedule: Q01DX001 (ip), vehicle: other 102 % of control | dose: 264.0 mg/kg/injection, schedule: Q01DX001 (ip), vehicle: other 120 % of control | dose: 400.0 mg/kg/injection, schedule: Q01DX001 (ip), vehicle: other 97 % of control | dose: 600.0 mg/kg/injection, schedule: Q01DX001 (ip), vehicle: other 105 % of control

O=c1[nH]nc(SCc2ccccc2)c(=O)[nH]1
inactive: [11] 108 % of control | [12] 92 % of control | [13] 109 % of control
